In experiment [1] the test system is Alzheimer's disease (AD) in patients over the age of 60. The experiment is described as follows: Health care database study at three hospitals: frequency of AD by medication (ICD-9-CM codes). To be noted: for Prevalence Of AD/1000 Hines / Prevalence Of AD/1000 Loyola / Prevalence Of AD/1000 Phoenix / Prevalence Of AD/1000 Combined: patients 60 years or over; for Prevalence Of AD/1000 Hines: Hines Veterans Authority Medical Center; for Prevalence Of AD/1000 Loyola: Loyola Medical Center; for Prevalence Of AD/1000 Phoenix: Phoenix Veterans Authority Medical Center; for Prevalence Of AD/1000 Combined: data from the three sites combined; for effect on prevalence / risk of AD (in words): patients over the age of 60, compared with total patient population. The experiment is classed as in vivo, human. From the text: To perform the study, relational databases at three different hospitals (Loyola Medical Center (“Loyola”), Hines Veterans Authority Medical Center (“Hines”), and Phoenix Veterans Authority Medical Center (“Phoenix”)) were searched to obtain aggregate data about the frequency of AD. Each database included clinical information that facilitated identification of potential relationships between specific items. […] Patient privacy was protected by using only aggregate patient data.
Each database was sorted to exclude any subjects under the age of 60 and any entries that contained patients' names but no medical information pertinent to the study. This yielded a total patient sample size for the three databases of 63,296 patients.
The frequency of AD for each medication was then determined using ICD-9-CM codes.
Alzheimer's disease was identified under the ICD-9-CM code of 331.0, but because other codes also apply to AD, the codes 331.2, 290.0, 290.10-13, 290.20 and 290.3 were also included as AD cases based on interviews with the physicians at each center who diagnosed or oversaw the diagnosis of patients with AD and on their coding practices for AD. The diagnosis of AD was made according to the criteria of the National Institute of Neurological and Communicative Disorders and Stroke (NINCDS) and the Alzheimer's Disease and Related Disorders Association (ADRDA) Work Group (McKhann et al., “Clinical Diagnosis of Alzheimer's Disease: Report of the NINCDS-ADRDA Work Group under the Auspices of Department of Health and Human Services Task Force on Alzheimer's Disease,” Neurology, 34:939-944 (1984).) Each AD patient had received either a CT scan or MRI to exclude other diagnoses, and had been screened for other metabolic, toxic, or affective disorders that may produce dementia.
Statistics were determined by comparisons of proportions using chi square analyses. All statistics listed P values and 95% confidence intervals.

In another experiment the test system is Alzheimer's disease (AD). Conditions: comparison figures, no source given; cited from earlier work.

`C[C@H](CS)C(=O)N1CCC[C@H]1C(=O)O` [Captopril, captopril]: in experiment [1], the “Prevalence Of AD/1000 Hines” value is reported as 8.4 /1000, the “Prevalence Of AD/1000 Loyola” value was 13.6 /1000, the “Prevalence Of AD/1000 Phoenix” value is on record as 10.6 /1000 and the “Prevalence Of AD/1000 Combined” value is on record as 10.6 /1000. In addition, the “effect on prevalence / risk of AD (in words)” value (from here on “effect on prevalence / risk”) in experiment [1] is “did not show any significant reduction”.
As to estrogen, in the experiment on Alzheimer's disease (AD), the “degree of reduction (of AD risk), other putative AD therapeutics” value is given as 25-31%.
In the case of `COCCc1ccc(OCC(O)CNC(C)C)cc1` (stereo not shown) [Metoprolol, metoprolol], in experiment [1], the “Prevalence Of AD/1000 Hines” value is 4.4 /1000, the “Prevalence Of AD/1000 Loyola” value is given as 15.3 /1000, the “Prevalence Of AD/1000 Phoenix” value is 12.4 /1000 and the “Prevalence Of AD/1000 Combined” value is 12.1 /1000. The “effect on prevalence / risk” value in experiment [1] is listed as “higher than that of the total patient cohort”.
The like results for `NS(=O)(=O)c1cc(C(=O)O)c(NCc2ccco2)cc1Cl` [Furosemide, furosemide] were, in that order, 9.0 /1000, 16.7 /1000, 14.1 /1000, 8.9 /1000 and “did not show any significant reduction”.
On to `Cc1c(C)c2c(c(C)c1O)CC[C@@](C)(CCC[C@H](C)CCC[C@H](C)CCCC(C)C)O2` [alpha-tocopherol], for which the “degree of reduction (of AD risk), other putative AD therapeutics” value in the experiment with Alzheimer's disease (AD) is 52%.
In the case of `CC(C)NCC(O)COc1cccc2ccccc12` (stereo not shown) [Propanolol, propanolol], in experiment [1], the “Prevalence Of AD/1000 Hines” value was 3.9 /1000, the “Prevalence Of AD/1000 Loyola” value is 42.4 /1000, the “Prevalence Of AD/1000 Phoenix” value is on record as 20.7 /1000 and the “Prevalence Of AD/1000 Combined” value is reported as 17.5 /1000. Besides, the “effect on prevalence / risk” value in experiment [1] is listed as “higher than that of the total patient cohort”.
The like results for `CC(C)NCC(O)COc1ccc(CC(N)=O)cc1` (stereo not shown) [Atenolol, atenolol] were, in that order, 7.1 /1000, 19.2 /1000, 19.0 /1000, 14.8 /1000 and “higher than that of the total patient cohort”.
`CC[C@H](C)C(=O)O[C@H]1C[C@H](O)C=C2C=C[C@H](C)[C@H](CC[C@@H](O)C[C@@H](O)CC(=O)O)[C@H]21` [Pravastatin, 1-naphthalene-hepatnoic acid, 1,2,6,7,8,8a-hexahydro-β,δ,6-trihydroxy-2-methyl-8-(2-methyl-1-oxobutoxy)]: in experiment [1], the “Prevalence Of AD/1000 Hines” value is recorded as 1.1 /1000, the “Prevalence Of AD/1000 Loyola” value is 0 /1000, the “Prevalence Of AD/1000 Phoenix” value is 8.3 /1000 and the “Prevalence Of AD/1000 Combined” value was 4.3 /1000.
Consider `CCC(C)(C)C(=O)O[C@H]1C[C@@H](C)C=C2C=C[C@H](C)[C@H](CC[C@@H]3C[C@@H](O)CC(=O)O3)[C@H]21` [Simvastatin, simvastatin], for which, in experiment [1], the “Prevalence Of AD/1000 Loyola” value is given as 8.1 /1000, the “Prevalence Of AD/1000 Phoenix” value is reported as 11.2 /1000 and the “Prevalence Of AD/1000 Combined” value is given as 11.2 /1000.

(Values after patent publication US6472421B1, “Methods for treating, preventing, and reducing the risk of the onset of alzheimer's disease using an HMG CoA reductase inhibitor” (Nymox Corporation, priority 1998, dated 2002).)
